In patent publication US11535629B2, “Dioxoloisoquinolinone derivatives and use thereof” (HANMI PHARMACEUTICAL CO., LTD., priority 2020, dated 2022):
Like-named read-outs stand apart in the source and are kept apart here.

Tested on: KARPAS-422 cells
Test: Cell growth inhibition test (CTG method)
Assay type: cell-based
Conditions: KARPAS-422 (EZH2^Y641N mutant), culturing for 7 days, read-out: Cell growth inhibitory activity (GI50, nM) KARPAS-422 (EZH2^Y641N mutant)
Method: The cultured cell strain was prepared at 1.8×10^4 cells/400 μL and placed in a 48-well plate.

[1] = Homo sapiens, KARPAS-422, 168 h

Compound	GI50	GI50 [1]
Cc1cc(C)c(CN2CCc3c(Cl)c4c(c(C)c3C2=O)OC(C)(C23CCC(N(C)C)(CC2)CC3)O4)c(=O)[nH]1 (single isomer, unassigned) [Compound 3, 9-chloro-6-((4,6-dimethyl-2-oxo-1,2-dihydropyridin-3-yl)methyl)-2-(4-(dimethylamino)bicyclo[2.2.2]octan-1-yl)-2,4-dimethyl-7,8-dihydro-[1,3]dioxolo[4,5-g]isoquinolin-5(6H)-one]	100 to 1000 nM	–
COc1cc(C)[nH]c(=O)c1CN1CCc2c(Cl)c3c(c(C)c2C1=O)OC(C)(C12CCC(N(C)C)(CC1)CC2)O3 (single isomer, unassigned) [Compound 6, 9-chloro-2-(4-(dimethylamino)bicyclo[2.2.2]octan-1-yl)-6-((4-methoxy-6-methyl-2-oxo-1,2-dihydropyridin-3-yl)methyl)-2,4-dimethyl-7,8-dihydro[1,3]dioxolo[4,5-g]isoquinolin-5(6H)-one]	> 1000 nM	–
CSc1cc(C)[nH]c(=O)c1CN1CCc2c(Cl)c3c(c(C)c2C1=O)OC(C)(C12CCC(N(C)C)(CC1)CC2)O3 (single isomer, unassigned) [Compound 9, 9-chloro-2-(4-(dimethylamino)bicyclo[2.2.2]octan-1-yl)-2,4-dimethyl-6-((6-methyl-4-(methylthio)-2-oxo-1,2-dihydropyridin-3-yl)methyl)-7,8-dihydro[1,3]dioxolo[4,5-g]isoquinolin-5(6H)-one]	100 to 1000 nM	–
Cc1cc(C)c(CN2CCc3c(Br)c4c(c(C)c3C2=O)OC(C)(C23CCC(N(C)C)(CC2)CC3)O4)c(=O)[nH]1 (single isomer, unassigned) [Compound 12, 9-bromo-6-((4,6-dimethyl-2-oxo-1,2-dihydropyridin-3-yl)methyl)-2-(4-(dimethylamino)bicyclo[2.2.2]octan-1-yl)-2,4-dimethyl-7,8-dihydro-[1,3]dioxolo[4,5-g]isoquinolin-5(6H)-one]	> 1000 nM	–
Cc1cc(C)c(CN2CCc3c(Cl)c4c(c(C)c3C2=O)OC(C)(C23CCC(N(C)C)(CC2)CC3)O4)c(=O)[nH]1 (stereo not shown) [Compound 1, 9-chloro-6-((4,6-dimethyl-2-oxo-1,2-dihydropyridin-3-yl)methyl)-2-(4-(dimethylamino)bicyclo[2.2.2]octan-1-yl)-2,4-dimethyl-7,8-dihydro-[1,3]dioxolo[4,5-g]isoquinolin-5(6H)-one]	–	10 to 100 nM
Cc1cc(C)c(CN2CCc3c(Br)c4c(c(C)c3C2=O)OC(C)(C23CCC(N(C)C)(CC2)CC3)O4)c(=O)[nH]1 (stereo not shown) [Compound 10, 9-bromo-6-((4,6-dimethyl-2-oxo-1,2-dihydropyridin-3-yl)methyl)-2-(4-(dimethylamino)bicyclo[2.2.2]octan-1-yl)-2,4-dimethyl-7,8-dihydro-[1,3]dioxolo[4,5-g]isoquinolin-5(6H)-one]	–	4.1 to 55 nM
Cc1cc(C)c(CN2CCc3c(c(C)c4c(c3C3CC3)OC(C)(C35CCC(N(C)C)(CC3)CC5)O4)C2=O)c(=O)[nH]1 (stereo not shown) [Compound 13, 9-cyclopropyl-6-((4,6-dimethyl-2-oxo-1,2-dihydropyridin-3-yl)methyl)-2-(4-(dimethylamino)bicyclo[2.2.2]octan-1-yl)-2,4-dimethyl-7,8-dihydro-[1,3]dioxolo[4,5-g]isoquinolin-5(6H)-one]	–	30 nM
Cc1cc(C)c(CN2CCc3cc4c(c(C)c3C2=O)OC(C)(C23CCC(N(C)C)(CC2)CC3)O4)c(=O)[nH]1 (stereo not shown) [Compound 14, 6-((4,6-dimethyl-2-oxo-1,2-dihydropyridin-3-yl)methyl)-2-(4-(dimethylamino)bicyclo[2.2.2]octan-1-yl)-2,4-dimethyl-7,8-dihydro-[1,3]dioxolo[4,5-g]isoquinolin-5(6H)-one]	–	45 nM
Cc1cc(C)c(CN2CCc3c(c(C)c4c(c3C3CCCC3)OC(C)(C35CCC(N(C)C)(CC3)CC5)O4)C2=O)c(=O)[nH]1 (stereo not shown) [Compound 16, 9-cyclopentyl-6-((4,6-dimethyl-2-oxo-1,2-dihydropyridin-3-yl)methyl)-2-(4-(dimethylamino)bicyclo[2.2.2]octan-1-yl)-2,4-dimethyl-7,8-dihydro-[1,3]dioxolo[4,5-g]isoquinolin-5(6H)-one]	–	36 nM
CCc1c2c(c(C)c3c1OC(C)(C14CCC(N(C)C)(CC1)CC4)O3)C(=O)N(Cc1c(C)cc(C)[nH]c1=O)CC2 (stereo not shown) [Compound 18, 6-((4,6-dimethyl-2-oxo-1,2-dihydropyridin-3-yl)methyl)-2-(4-(dimethylamino)bicyclo[2.2.2]octan-1-yl)-9-ethyl-2,4-dimethyl-7,8-dihydro-[1,3]dioxolo[4,5-g]isoquinolin-5(6H)-one]	–	27 nM
Cc1cc(C)c(CN2CCc3c(c(C)c4c(c3C(C)C)OC(C)(C35CCC(N(C)C)(CC3)CC5)O4)C2=O)c(=O)[nH]1 (stereo not shown) [Compound 20, 6-((4,6-dimethyl-2-oxo-1,2-dihydropyridin-3-yl)methyl)-2-(4-(dimethylamino)bicyclo[2.2.2]octan-1-yl)-9-isopropyl-2,4-dimethyl-7,8-dihydro-[1,3]dioxolo[4,5-g]isoquinolin-5(6H)-one]	–	47 nM
C#Cc1c2c(c(C)c3c1OC(C)(C14CCC(N(C)C)(CC1)CC4)O3)C(=O)N(Cc1c(C)cc(C)[nH]c1=O)CC2 (stereo not shown) [Compound 21, 6-((4,6-dimethyl-2-oxo-1,2-dihydropyridin-3-yl)methyl)-2-(4-(dimethylamino)bicyclo[2.2.2]octan-1-yl)-9-ethynyl-2,4-dimethyl-7,8-dihydro-[1,3]dioxolo[4,5-g]isoquinolin-5(6H)-one]	–	18 nM
Cc1cc(C)c(CN2CCc3c(C)c4c(c(C)c3C2=O)OC(C)(C23CCC(N(C)C)(CC2)CC3)O4)c(=O)[nH]1 (stereo not shown) [Compound 22, 6-((4,6-dimethyl-2-oxo-1,2-dihydropyridin-3-yl)methyl)-2-(4-(dimethylamino)bicyclo[2.2.2]octan-1-yl)-2,4,9-trimethyl-7,8-dihydro-[1,3]dioxolo[4,5-g]isoquinolin-5(6H)-one]	12 to 19 nM	–
Cc1cc(C)c(CN2CCc3c(C)c4c(c(C)c3C2=O)OC(C)(C23CCC(N(C)C)(CC2)CC3)O4)c(=O)[nH]1 (stereo not shown) [Compound 24, 6-((4,6-dimethyl-2-oxo-1,2-dihydropyridin-3-yl)methyl)-2-(4-(dimethylamino)bicyclo[2.2.2]octan-1-yl)-2,4,9-trimethyl-7,8-dihydro-[1,3]dioxolo[4,5-g]isoquinolin-5(6H)-one]	100 to 1000 nM	–
COc1cc(C)[nH]c(=O)c1CN1CCc2c(C)c3c(c(C)c2C1=O)OC(C)(C12CCC(N(C)C)(CC1)CC2)O3 (stereo not shown) [Compound 25, 2-(4-(dimethylamino)bicyclo[2.2.2]octan-1-yl)-6-((4-methoxy-6-methyl-2-oxo-1,2-dihydropyridin-3-yl)methyl)-2,4,9-trimethyl-7,8-dihydro[1,3]dioxolo[4,5-g]isoquinolin-5(6H)-one]	–	14 nM
CCCc1cc(C)[nH]c(=O)c1CN1CCc2c(C)c3c(c(C)c2C1=O)OC(C)(C12CCC(N(C)C)(CC1)CC2)O3 (stereo not shown) [Compound 26, 2-(4-(dimethylamino)bicyclo[2.2.2]octan-1-yl)-2,4,9-trimethyl-6-((6-methyl-2-oxo-4-propyl-1,2-dihydropyridin-3-yl)methyl)-7,8-dihydro[1,3]dioxolo[4,5-g]isoquinolin-5(6H)-one]	–	46 nM
Cc1cc(C)c(CN2CCc3c(C)c4c(c(Cl)c3C2=O)OC(C)(C23CCC(N(C)C)(CC2)CC3)O4)c(=O)[nH]1 (stereo not shown) [Compound 27, 4-chloro-6-((4,6-dimethyl-2-oxo-1,2-dihydropyridin-3-yl)methyl)-2-(4-(dimethylamino)bicyclo[2.2.2]octan-1-yl)-2,9-dimethyl-7,8-dihydro-[1,3]dioxolo[4,5-g]isoquinolin-5(6H)-one]	–	9.8 nM
Cc1cc(C)c(CN2CCc3c(Cl)c4c(c(Cl)c3C2=O)OC(C)(C23CCC(N(C)C)(CC2)CC3)O4)c(=O)[nH]1 (stereo not shown) [Compound 28, 4,9-dichloro-6-((4,6-dimethyl-2-oxo-1,2-dihydropyridin-3-yl)methyl)-2-(4-(dimethylamino)bicyclo[2.2.2]octan-1-yl)-2-methyl-7,8-dihydro-[1,3]dioxolo[4,5-g]isoquinolin-5(6H)-one]	–	13 nM
Cc1cc(C)c(CN2CCc3c(Cl)c4c(c(C)c3C2=O)OC(C23CCC(N(C)C)(CC2)CC3)O4)c(=O)[nH]1 (stereo not shown) [Compound 29, 9-chloro-6-((4,6-dimethyl-2-oxo-1,2-dihydropyridin-3-yl)methyl)-2-(4-(dimethylamino)bicyclo[2.2.2]octan-1-yl)-4-methyl-7,8-dihydro-[1,3]dioxolo[4,5-g]isoquinolin-5(6H)-one]	–	36 nM
Cc1cc(C)c(CN2CCc3c(c(C)c4c(c3-c3ccco3)O[C@@](C)([C@H]3CC[C@H](N(C)C)CC3)O4)C2=O)c(=O)[nH]1 [Compound 31, (S)-6-((4,6-dimethyl-2-oxo-1,2-dihydropyridin-3-yl)methyl)-2-(trans-4-(dimethylamino)cyclohexyl)-9-(furan-2-yl)-2,4-dimethyl-7,8-dihydro-[1,3]dioxolo[4,5-g]isoquinolin-5(6H)-one]	–	> 1000 nM
Cc1cc(C)c(CN2CCc3c(c(C)c4c(c3-c3cccs3)O[C@@](C)([C@H]3CC[C@H](N(C)C)CC3)O4)C2=O)c(=O)[nH]1 [Compound 33, (S)-6-((4,6-dimethyl-2-oxo-1,2-dihydropyridin-3-yl)methyl)-2-(trans-4-(dimethylamino)cyclohexyl)-2,4-dimethyl-9-(thiophen-2-yl)-7,8-dihydro-[1,3]dioxolo[4,5-g]isoquinolin-5(6H)-one]	–	> 1000 nM
Cc1cc(C)c(CN2CCc3c(c(C)c4c(c3-c3ccncc3)O[C@@](C)([C@H]3CC[C@H](N(C)C)CC3)O4)C2=O)c(=O)[nH]1 [Compound 35, (S)-6-((4,6-dimethyl-2-oxo-1,2-dihydropyridin-3-yl)methyl)-2-(trans-4-(dimethylamino)cyclohexyl)-2,4-dimethyl-9-(pyridin-4-yl)-7,8-dihydro-[1,3]dioxolo[4,5-g]isoquinolin-5(6H)-one]	–	> 1000 nM
